Measurements published in patent publication US8163536B2, “Device for preparing an undifferentiated cell from a more committed cell” (Tristem Trading (Cyprus) Limited, priority 2000, dated 2012).

Columns and labels:
displaced cells = details: pre-determined period, then calcium containing medium containing cortisone
Description: The erythroid progenitors can be cultured and expanded for long periods of time and may be used in the treatment red blood disorder and red blood shortages.

[1] = test system: enriched, purified, normal B lymphocytes; assay: Flow cytometry of enriched, purified, normal B lymphocytes treated with one of three agents (FIG. 20); format: cell-based, human; details: compared with the negative control
Experimental: Initial studies actually identified three agents—granulocyte/monocyte-colony stimulating factor (GM-CSF), erythropoietin and mAb CR3/43. A preparation of enriched, purified, normal B lymphocytes was treated in a device according to the present invention with one of these three agents in a similar manner to that described for CR3/43 and TAL.1B5 above and treated samples examined by flow cytometry as described above. […] In particular, all three agents increased the relative number of CD34^+ cells in the cell population (see FIG. 20).

Q: With `O=C(O)CN(CCN(CC(=O)O)CC(=O)O)CC(=O)O` [EDTA] as the molecule, how does the “retrodifferentiation of more committed cells” value (displaced cells) read?
A: caused more committed cells to retrodifferentiate into undifferentiated cells

Q: With “GM-CSF: granulocyte/monocyte-colony stimulating factor, haematopoietic growth factor” as the molecule, how does the “relative number of CD34+ cells in the cell population (FIG. 20)” value [1] read?
A: increased
